Measurements taken from publication PMC6934184, “Selective DNA-PKcs inhibition extends the therapeutic index of localized radiotherapy and chemotherapy” (The Journal of Clinical Investigation, 2019).

Target: T1, WEE1 (Homo sapiens, UniProt P30291)
T1 construct: purchased Thermo Fisher Scientific (Life Technologies) SelectScreen
Assay: SelectScreen LanthaScreen
Format: binding
Conditions: read-out: % displacement
Procedure, shortened: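 Percent values come from Thermo SelectScreen profiling of NU5455, combining activity and binding assays. CSF1R was run in Z'LYTE format at Km app ATP, and CAMK1 in Adapta format with ATP listed at 10.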

T1 sequence (P30291 whole entry): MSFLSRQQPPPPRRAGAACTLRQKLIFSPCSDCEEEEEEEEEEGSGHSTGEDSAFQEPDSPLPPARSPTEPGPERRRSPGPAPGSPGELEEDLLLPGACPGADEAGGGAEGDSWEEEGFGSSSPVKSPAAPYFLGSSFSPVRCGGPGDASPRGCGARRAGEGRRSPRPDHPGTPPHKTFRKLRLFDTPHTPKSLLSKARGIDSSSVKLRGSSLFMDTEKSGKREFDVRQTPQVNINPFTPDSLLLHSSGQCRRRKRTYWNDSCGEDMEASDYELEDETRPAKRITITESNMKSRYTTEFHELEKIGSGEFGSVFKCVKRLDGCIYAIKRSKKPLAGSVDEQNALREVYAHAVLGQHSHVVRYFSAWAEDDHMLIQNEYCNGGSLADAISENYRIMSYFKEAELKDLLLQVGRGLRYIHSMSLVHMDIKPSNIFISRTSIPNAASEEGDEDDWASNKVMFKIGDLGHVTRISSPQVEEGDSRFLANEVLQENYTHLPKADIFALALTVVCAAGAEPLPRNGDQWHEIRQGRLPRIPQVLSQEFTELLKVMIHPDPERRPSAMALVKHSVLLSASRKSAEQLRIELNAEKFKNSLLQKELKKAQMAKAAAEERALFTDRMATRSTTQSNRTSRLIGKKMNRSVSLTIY

Question: With `CN(C(=O)CN1CCOCC1)c1ccc2sc3c(-c4cccc5c(=O)cc(N6CC7CCC(C6)O7)oc45)cccc3c2c1` [NU5455] as the compound, how does the inhibition at 1 µM read?
Answer: 18.2%
